{"source": "paper PMC9287224", "about": "(Clinical Pharmacokinetics, 2022)", "key": {"[1]": {"conditions": "for decrease in Cl/F: Child C cirrhosis compared with control subjects; for decrease of the elimination rate by liver cirrhosis: liver cirrhosis (Child class not stated) vs control subjects; for reduction of the elimination rate: patients with Child C cirrhosis vs control subjects"}, "[2]": {"conditions": "monkeys; cited from earlier work"}, "CYP2C9": {"biological_target": "CYP2C9 (Homo sapiens, UniProt P11712)", "sequence (P11712 whole entry)": "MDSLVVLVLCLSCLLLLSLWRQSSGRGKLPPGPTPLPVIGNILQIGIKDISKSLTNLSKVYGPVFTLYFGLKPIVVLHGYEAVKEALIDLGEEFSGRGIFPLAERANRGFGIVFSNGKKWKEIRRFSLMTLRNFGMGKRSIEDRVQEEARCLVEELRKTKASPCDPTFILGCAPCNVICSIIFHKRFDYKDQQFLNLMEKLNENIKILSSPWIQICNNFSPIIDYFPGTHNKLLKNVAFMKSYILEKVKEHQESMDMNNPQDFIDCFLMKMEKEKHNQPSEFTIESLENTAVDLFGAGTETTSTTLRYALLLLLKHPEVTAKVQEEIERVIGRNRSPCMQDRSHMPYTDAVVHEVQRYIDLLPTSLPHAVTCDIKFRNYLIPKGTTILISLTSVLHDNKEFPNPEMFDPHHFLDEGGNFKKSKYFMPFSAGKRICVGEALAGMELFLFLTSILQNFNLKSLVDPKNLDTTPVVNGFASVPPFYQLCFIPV", "conditions": "patients with Child C cirrhosis vs control subjects"}, "[3]": {"experiment": "Galactose elimination capacity", "assay_type": "in vivo, human", "conditions": "patients with Child C cirrhosis"}}, "note": "Counter-ions that a name gives are not always drawn."}
{"smiles": "COc1ccc2[nH]c([S+]([O-])Cc3ncc(C)c(OC)c3C)nc2c1", "note": "(stereo not shown) [Omeprazole, omeprazole]", "values": [{"measurement": "decrease in Cl/F", "setting": "[1]", "result": 91, "unit": "%"}, {"measurement": "decrease of the elimination rate by liver cirrhosis", "setting": "[1]", "result": 75, "unit": "%"}]}
{"smiles": "CC(C(=O)O)c1ccc(-c2ccc(O)cc2)c(F)c1", "note": "(stereo not shown) [4-Hydroxyflurbiprofen, 4-hydroxyflurbiprofen]", "values": [{"measurement": "increase in the AUC0–24h by liver cirrhosis", "setting": "[1]; liver cirrhosis vs control subjects (Child class not stated)", "result": 58, "unit": "%"}]}
{"smiles": "Cn1c(=O)c2c(ncn2C)n(C)c1=O", "note": "[Caffeine, caffeine]", "values": [{"measurement": "reduction of the elimination rate", "setting": "[1]", "result": 51, "unit": "%"}]}
{"smiles": "O=C1Nc2ccc(Cl)cc2[C@@](C#CC2CC2)(C(F)(F)F)O1", "note": "[Efavirenz, efavirenz]", "values": [{"measurement": "bioavailability", "setting": "[2]", "result": 42, "unit": "%"}, {"measurement": "reduction of the elimination rate", "setting": "[1]", "result": 30, "unit": "%"}]}
{"smiles": "CC(C(=O)O)c1ccc(-c2ccccc2)c(F)c1", "note": "(stereo not shown) [Flurbiprofen, flurbiprofen]", "values": [{"measurement": "change of metabolic ratio 4-hydroxyflurbiprofen/flurbiprofen", "setting": "CYP2C9", "result": "remained unchanged"}]}
{"smiles": "O=C[C@H](O)[C@@H](O)[C@@H](O)[C@H](O)CO", "note": "[Galactose, galactose]", "values": [{"measurement": "galactose elimination capacity as % of controls (dropping to)", "setting": "[3]", "result": 18, "unit": "%"}]}
{"smiles": "Cc1ncc2n1-c1ccc(Cl)cc1C(c1ccccc1F)=NC2", "note": "[Midazolam, midazolam]", "values": [{"measurement": "decrease in Cl/F", "setting": "[1]", "result": 84, "unit": "%"}, {"measurement": "ratio of the bioavailabilities Fcirrhosis Child C/Fcontrols", "setting": "[1]; assuming equal volume of distribution in cirrhosis and controls", "result": 1.73}, {"measurement": "clearance", "setting": "[1]; human, in vivo, clearance corrected for bioavailability, controls", "result": "~1330", "unit": "mL/min"}]}
{"smiles": "COCCc1ccc(OCC(O)CNC(C)C)cc1", "note": "(stereo not shown) [Metoprolol, metoprolol tartrate]", "values": [{"measurement": "decrease of the elimination rate by liver cirrhosis", "setting": "[1]", "result": 37, "unit": "%"}, {"measurement": "Cl/F as % of control subjects (dropped to)", "setting": "[1]; patients with Child C cirrhosis", "result": 22, "unit": "%"}]}
